Results as given in patent publication US7960398B2, “Regulation of TNF-alpha” (Vertex Pharmaceuticals Incorporated, priority 2002, dated 2011).

These compounds were tested on TNF-alpha (assay: Inhibition of TNF Release From Whole Blood). Conditions: human whole blood diluted 1:2 in PBS, LPS 5 ng/ml, incubated at 37° C. overnight, TNF-alpha in supernatants by ELISA.
Assay type: cell-based
Procedure: Human blood was freshly drawn from healthy donors and collected in vacutainers. Blood was diluted 1:2 in PBS (tissue culture, pyrogen free) in a sterile bottle and inverted to mix well. Aliquots of 0.5 ml of blood mixture were dispensed into cluster tubes in 96 well format.
Dilutions of the test compounds were prepared in RPMI by taking 100 mM DMSO stocks of the compounds and diluting 1:10 in RPMI medium in eppendorfs, to give a 10 mM stock. 1:5 serial dilutions were prepared from the stock solutions.
LPS was kept at a frozen stock (−20 degrees C.) at 1 mg/ml in PBS and then diluted to 1:10 with RPMI medium and finally diluted in the medium again 1:350. 50 μl of each test compound (first concentration was 100 uM) were added to the blood samples and then stimulated with 10 μl LPS (final concentration in the well is 5 ng/ml). The contents were gently mixed using an 8 well multi-channel pipette and incubated at 37° C. overnight. At the end of the incubation time, contents were gently mixed, then spun down at 1000×g for 5 mins at 20° C. The serum supernatants were transferred to a fresh plate without disturbing the RBCs and diluted 1:2 with the diluent RD6C.
TNF-alpha levels of supernatants were assayed using the R+D systems ELISA kit, using R+D systems protocol. Samples were read at 450 nm. The compounds shown in Table 1 were tested in the above assay. In this TNF-alpha assay, category “A” indicates an IC50 value of <500 nM. Category “B” indicates an IC50 value of 500-1000 nM. […] Category “D” indicates an IC50 value of >2000 nM.

IC50 [nM] | Compound
1000 to 2000 | C[C@@H](C(=O)NC(CC(=O)O)C(=O)CF)n1ccc2ccccc2c1=O (stereo partly shown)
500 to 1000 | CC(C)[C@@H](C(=O)NC(CC(=O)O)C(=O)CF)n1cnc2ccccc2c1=O (stereo partly shown)
1000 to 2000 | O=C(O)CC(NC(=O)[C@@H]1CCCCN1C(=O)OCc1cc(Cl)cc(Cl)c1)C(=O)CF (stereo partly shown)
< 500 | CC[C@@H](C(=O)NC(CC(=O)O)C(=O)CF)n1ccc2ccc(Cl)cc2c1=O (stereo partly shown)
< 500 | CC[C@@H](C(=O)NC(CC(=O)O)C(=O)CF)n1cnc2ccc(Cl)cc2c1=O (stereo partly shown)
500 to 1000 | CC[C@@H](C(=O)NC(CC(=O)O)C(=O)CF)n1cnc2ccc(Oc3ccccc3)cc2c1=O (stereo partly shown)
1000 to 2000 | CC[C@@H](C(=O)NC(CC(=O)O)C(=O)COc1c(F)c(F)cc(F)c1F)n1cnc2ccccc2c1=O (stereo partly shown)
1000 to 2000 | CC[C@@H](C(=O)N[C@@H](CC(=O)O)C(=O)COc1c(F)c(F)cc(F)c1F)n1cnc2ccc(Cl)cc2c1=O
< 500 | O=C(O)CC(NC(=O)[C@@H]1CCCCN1C(=O)OCc1cccc(Cl)c1F)C(=O)CF (stereo partly shown)
< 500 | O=C(O)CC(NC(=O)[C@@H]1CCCCN1C(=O)OCc1cc(F)ccc1F)C(=O)CF (stereo partly shown)
< 500 | CCC[C@@H](C(=O)NC(CC(=O)O)C(=O)CF)n1ccc2ccccc2c1=O (stereo partly shown)
< 500 | Cc1ccccc1COC(=O)N1CCCC[C@H]1C(=O)NC(CC(=O)O)C(=O)CF (stereo partly shown)
> 2000 | CC[C@@H](C(=O)NC(CC(=O)O)C(=O)CF)n1cnc2ccc(Oc3ccccc3Cl)cc2c1=O (stereo partly shown)
> 2000 | CC[C@@H](C(=O)NC(CC(=O)O)C(=O)CF)n1cnc2ccc(Oc3cccc(Cl)c3)cc2c1=O (stereo partly shown)
> 2000 | CC[C@@H](C(=O)NC(CC(=O)O)C(=O)CF)n1cnc2ccc(Oc3cccc(F)c3)cc2c1=O (stereo partly shown)
1000 to 2000 | CC[C@@H](C(=O)NC(CC(=O)O)C(=O)CF)n1cnc2ccc(Sc3cccc(F)c3)cc2c1=O (stereo partly shown)
500 to 1000 | CC[C@@H](C(=O)NC(CC(=O)O)C(=O)CF)n1ccc2ccc(C(F)(F)F)cc2c1=O (stereo partly shown)
500 to 1000 | Cc1cccc(COC(=O)N2CCCC[C@H]2C(=O)NC(CC(=O)O)C(=O)CF)c1 (stereo partly shown)
> 2000 | CC[C@@H](C(=O)N[C@@H](CC(=O)O)C(=O)COP(=O)(c1ccccc1)c1ccccc1)n1cnc2ccccc2c1=O
1000 to 2000 | CC[C@@H](C(=O)NC(CC(=O)O)C(=O)COc1c(F)c(F)cc(F)c1F)n1ccc2ccc(Cl)cc2c1=O (stereo partly shown)
< 500 | CCCSc1ccc2ncn([C@@H](CC)C(=O)NC(CC(=O)O)C(=O)CF)c(=O)c2c1 (stereo partly shown)
< 500 | CC[C@@H](C(=O)NC(CC(=O)O)C(=O)CF)n1ccc2ccc(-c3ccccc3)cc2c1=O (stereo partly shown)
500 to 1000 | CC[C@@H](C(=O)N[C@@H](CC(=O)O)C(=O)COc1c(F)c(F)cc(F)c1F)n1ccc2ccccc2c1=O

IC50 [nM] | Compound
> 2000 | O=C(O)C[C@H](NC(=O)[C@@H]1CCCCN1C(=O)OCc1cc(Cl)ccc1F)C(=O)COc1c(F)c(F)cc(F)c1F
< 500 | CC[C@H](NC(=O)c1ncc[nH]1)C(=O)NC(CC(=O)O)C(=O)CF (stereo partly shown)
< 500 | CCC[C@@H](C(=O)NC(CC(=O)O)C(=O)CF)n1cnc2ccccc2c1=O (stereo partly shown)
< 500 | CC[C@@H](C(=O)NC(CC(=O)O)C(=O)CF)n1cnc2ccccc2c1=O (stereo partly shown)
< 500 | CC(C)[C@H](NC(=O)OCc1ccccc1)C(=O)NC(CC(=O)O)C(=O)CF (stereo partly shown)
< 500 | O=C(O)CC(NC(=O)[C@@H]1CCCc2cc3ccccc3c(=O)n21)C(=O)CF (stereo partly shown)
< 500 | CC(C)[C@H](OC(=O)Nc1ccccc1)C(=O)NC(CC(=O)O)C(=O)CF (stereo partly shown)
< 500 | Cc1c(C(=O)N[C@H](C(=O)NC(CC(=O)O)C(=O)CF)C(C)C)n(C)c2ccccc12 (stereo partly shown)
< 500 | O=C(O)CC(NC(=O)[C@@H]1CCCCN1C(=O)c1sc2ccccc2c1Cl)C(=O)CF (stereo partly shown)
500 to 1000 | O=C(O)CC(NC(=O)[C@@H]1CCCc2nc3ccccc3c(=O)n21)C(=O)CF (stereo partly shown)
500 to 1000 | C[C@H](OC(=O)Nc1ccccc1)C(=O)NC(CC(=O)O)C(=O)CF (stereo partly shown)
500 to 1000 | O=C(O)CC(NC(=O)[C@@H]1CCCCN1C(=O)N1c2ccccc2Sc2ccc(Cl)cc21)C(=O)CF (stereo partly shown)
> 2000 | O=C(O)CC(NC(=O)[C@@H]1CCCCN1C(=O)N1c2ccccc2Sc2ccc(C(F)(F)F)cc21)C(=O)CF (stereo partly shown)
< 500 | C[C@@H](C(=O)NC(CC(=O)O)C(=O)CF)n1cnc2ccccc2c1=O (stereo partly shown) [drawing 34]
1000 to 2000 | CC(C)[C@H](OC(=O)n1c2ccccc2c2ccccc21)C(=O)NC(CC(=O)O)C(=O)CF (stereo partly shown) [drawing 36]
< 500 | O=C(O)CC(NC(=O)[C@@H]1CCCCN1C(=O)O[C@H](c1ccccc1)C(F)(F)F)C(=O)CF (stereo partly shown) [drawing 37]
> 2000 | O=C(O)CC(NC(=O)[C@@H]1CCCCN1C(=O)c1ccc(-c2cccc(C(F)(F)F)c2)o1)C(=O)CF (stereo partly shown) [drawing 39]
< 500 | O=C(O)CC(NC(=O)[C@@H]1CCCCN1C(=O)OCc1cc(Cl)ccc1F)C(=O)CF (stereo partly shown) [drawing 40]
< 500 | O=C(O)CC(NC(=O)[C@@H]1CCCCN1C(=O)O[C@H](c1ccccc1)C(F)(F)F)C(=O)CF (stereo partly shown) [drawing 65]
< 500 | C[C@@H](C(=O)NC(CC(=O)O)C(=O)CF)n1cnc2ccccc2c1=O (stereo partly shown) [drawing 66]
< 500 | O=C(O)CC(NC(=O)[C@@H]1CCCCN1C(=O)OCc1cc(Cl)ccc1F)C(=O)CF (stereo partly shown) [drawing 70]
1000 to 2000 | CC(C)[C@H](OC(=O)n1c2ccccc2c2ccccc21)C(=O)NC(CC(=O)O)C(=O)CF (stereo partly shown) [drawing 76]
> 2000 | O=C(O)CC(NC(=O)[C@@H]1CCCCN1C(=O)c1ccc(-c2cccc(C(F)(F)F)c2)o1)C(=O)CF (stereo partly shown) [drawing 78]
